One experiment has as its target GABAB receptors (Homo sapiens, UniProt Q9UBS5). Conditions: cited from earlier work.
The target of experiment [1] is CaMK2a (Homo sapiens, UniProt Q9UQM7). Particulars: cited from earlier work.
Experiment [2] has as its system hypocretin knock-out mouse model. In words: Hypocretin knock-out mouse model of narcolepsy, sleep-wake EEG/EMG and cataplexy. Format: in vivo. Conditions: for cataplexy: mixed-effects model with post hoc Sidak, FIG. 4. An excerpt: (§1) Using the hypocretin knock-out mouse model we determine changes in sleep-wake EEG/EMG patterns (including cataplexy) at different time points (1 day to 3 weeks) under the influence of a compound (HOCPCA) of Formula I. After drug cessation, EEG/EMG changes are then further mapped for up to 4 weeks. Under anesthesia with isoflurane (2% to 2.5% in O2) electrodes are placed in the scull and neck muscles of the mice. After 5-10 days recovery the electrodes are connected to a recording system, and EEG/EMG signals are recorded with synchronised video recordings. From the data, sleep/wake parameters and cataplexy episodes are scored and calculated (FIG. 4-5).

Experiment [3] has as its system DTA narcolepsy mouse model. In words: DTA mouse model of narcolepsy, sleep-wake EEG/EMG and cataplexy. Format: in vivo. Particulars: two-way ANOVA, p=0.0017, n=5-6; FIG. 3.
Excerpt: as §1, with “DTA narcolepsy” for “hypocretin knock-out”, “are determining” for “determine”, “sleepwake” for “sleep-wake”, “compound” for “compound (HOCPCA)”, “I (Ph-HTBA).” for “I.”, “FIG. 3).” for “(FIG. 4-5).”

Experiment [4] deals with T1, CaMK2a (Mus musculus, UniProt P11798).
T1 construct: mouse brains from either (Ube3a^m−/p+) or wildtype mice, were dissected, sliced on a cryostat; from tissue; host or cells: mouse brain slices (Ube3a m-/p+ and wild-type)
The experiment can be described thus: Mouse brain 3H-HOCPCA autoradiography (Angelman syndrome Ube3a m-/p+ vs wild-type brain slices). Format: binding. Conditions: Ube3a m-/p+ (HET, Angelman syndrome) mice vs WT; 1 nM radioligand; most pronounced in hippocampus; FIG. 1.

A further experiment concerns rat CaMK2a. The experiment can be described thus: 3H-HOCPCA filtration binding to recombinant wild-type or mutated CaMK2a expressed in HEK293T cells. Particulars: hub domain mutations Arg433Gln, Arg453Gln, Arg469Cys/Arg469Gln; HEK whole cell homogenates; expression confirmed by WB; FIG. 2. How it is done: ^3H-HOCPCA Binding to Recombinant CaMK2a Expressed in HEK293T Cells
HEK293T cells were cultured using standard conditions, using Dulbecco's modified Eagle Medium with GlutaMax, 10% fetal bovine serum and 1% penicillin-streptomycin, and incubated at 37° C. in a humidified atmosphere of […] and 5% CO2. Site-directed mutagenesis was done using point mutations and performed by GenScript USA Inc. Cells were transfected with wild-type or mutated cmyc-tagged rat CaMK2a (Origene construct RR201121), using polyethimine, linear, MW 25000 (Polysciences Inc., Warrington, PA, USA). Whole cell homogenates were prepared 48 hr post-transfection by washing the cells with ice-cold 1×PBS and harvesting by scraping. Cells were collected and centrifuged for 10 min at 1000×g. Cell pellets were resuspended in ice-cold 1×PBS and homogenized using 2×1 mm zirkonium beads in a bullet blender for 20 s at max speed (NextAdvance, NY, USA). Homogenates were cleared by centrifugation (10 min, 4° C., […]). Protein concentration was determined using the Bradford protein assay. […] Nonspecific binding was determined with 1-10 mM GHB. […] The dried filters were added scintillation liquid and radioactivity measured on a Tricarb 2100 Scintillation counter (Packard). […]
Total expression levels of CaMK2a were assessed by Western blot with anti-myc-Alexa488 (MA1980-A488, ThermoFisher Scientific). […]

Experiment [5] relates to mouse model of narcolepsy type 1. Particulars: Black et al. J Neurosci 2014; cited from earlier work.

T1 sequence (P11798 whole entry): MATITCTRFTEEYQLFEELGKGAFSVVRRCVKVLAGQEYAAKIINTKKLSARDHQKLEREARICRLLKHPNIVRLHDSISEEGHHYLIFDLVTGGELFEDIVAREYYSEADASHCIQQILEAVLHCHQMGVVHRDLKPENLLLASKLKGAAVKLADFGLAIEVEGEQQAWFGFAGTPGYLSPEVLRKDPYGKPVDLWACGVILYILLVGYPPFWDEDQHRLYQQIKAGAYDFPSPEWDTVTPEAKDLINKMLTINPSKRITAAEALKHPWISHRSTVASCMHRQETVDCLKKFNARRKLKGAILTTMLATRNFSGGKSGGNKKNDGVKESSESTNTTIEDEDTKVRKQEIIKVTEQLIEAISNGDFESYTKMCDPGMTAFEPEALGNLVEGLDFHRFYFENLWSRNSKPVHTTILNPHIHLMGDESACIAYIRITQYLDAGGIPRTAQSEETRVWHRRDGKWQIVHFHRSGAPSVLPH
CaMK2a (Homo sapiens, UniProt Q9UQM7), sequence (Q9UQM7 whole entry): as the sequence (P11798 whole entry) above, with N324S counted along it
GABAB receptors, sequence (Q9UBS5 15-961 limits assumed): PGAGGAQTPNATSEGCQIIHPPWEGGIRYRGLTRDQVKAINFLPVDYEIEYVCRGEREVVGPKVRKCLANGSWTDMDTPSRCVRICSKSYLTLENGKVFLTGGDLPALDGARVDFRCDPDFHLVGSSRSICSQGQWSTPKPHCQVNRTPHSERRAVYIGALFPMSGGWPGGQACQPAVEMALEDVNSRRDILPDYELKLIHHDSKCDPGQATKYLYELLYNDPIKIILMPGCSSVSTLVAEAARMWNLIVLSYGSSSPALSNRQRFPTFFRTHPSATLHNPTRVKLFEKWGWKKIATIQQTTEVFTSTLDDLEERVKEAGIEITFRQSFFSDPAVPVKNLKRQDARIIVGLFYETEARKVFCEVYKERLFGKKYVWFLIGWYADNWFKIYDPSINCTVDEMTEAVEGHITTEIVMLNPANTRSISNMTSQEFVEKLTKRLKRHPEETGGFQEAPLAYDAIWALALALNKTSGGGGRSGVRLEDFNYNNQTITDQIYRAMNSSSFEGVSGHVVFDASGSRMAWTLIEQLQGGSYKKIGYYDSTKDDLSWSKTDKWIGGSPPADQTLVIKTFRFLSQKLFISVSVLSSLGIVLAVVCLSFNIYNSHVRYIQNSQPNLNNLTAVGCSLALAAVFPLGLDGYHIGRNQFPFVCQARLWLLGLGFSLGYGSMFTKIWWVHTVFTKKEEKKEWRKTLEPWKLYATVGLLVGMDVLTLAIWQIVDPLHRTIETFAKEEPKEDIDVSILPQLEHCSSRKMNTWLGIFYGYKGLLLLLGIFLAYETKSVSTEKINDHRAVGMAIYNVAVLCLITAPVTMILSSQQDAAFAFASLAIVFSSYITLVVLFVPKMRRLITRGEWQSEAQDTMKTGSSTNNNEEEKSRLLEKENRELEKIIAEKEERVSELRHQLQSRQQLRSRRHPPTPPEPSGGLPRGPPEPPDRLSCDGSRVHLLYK
GABAB receptors, sequence (O75899 42-941 partner): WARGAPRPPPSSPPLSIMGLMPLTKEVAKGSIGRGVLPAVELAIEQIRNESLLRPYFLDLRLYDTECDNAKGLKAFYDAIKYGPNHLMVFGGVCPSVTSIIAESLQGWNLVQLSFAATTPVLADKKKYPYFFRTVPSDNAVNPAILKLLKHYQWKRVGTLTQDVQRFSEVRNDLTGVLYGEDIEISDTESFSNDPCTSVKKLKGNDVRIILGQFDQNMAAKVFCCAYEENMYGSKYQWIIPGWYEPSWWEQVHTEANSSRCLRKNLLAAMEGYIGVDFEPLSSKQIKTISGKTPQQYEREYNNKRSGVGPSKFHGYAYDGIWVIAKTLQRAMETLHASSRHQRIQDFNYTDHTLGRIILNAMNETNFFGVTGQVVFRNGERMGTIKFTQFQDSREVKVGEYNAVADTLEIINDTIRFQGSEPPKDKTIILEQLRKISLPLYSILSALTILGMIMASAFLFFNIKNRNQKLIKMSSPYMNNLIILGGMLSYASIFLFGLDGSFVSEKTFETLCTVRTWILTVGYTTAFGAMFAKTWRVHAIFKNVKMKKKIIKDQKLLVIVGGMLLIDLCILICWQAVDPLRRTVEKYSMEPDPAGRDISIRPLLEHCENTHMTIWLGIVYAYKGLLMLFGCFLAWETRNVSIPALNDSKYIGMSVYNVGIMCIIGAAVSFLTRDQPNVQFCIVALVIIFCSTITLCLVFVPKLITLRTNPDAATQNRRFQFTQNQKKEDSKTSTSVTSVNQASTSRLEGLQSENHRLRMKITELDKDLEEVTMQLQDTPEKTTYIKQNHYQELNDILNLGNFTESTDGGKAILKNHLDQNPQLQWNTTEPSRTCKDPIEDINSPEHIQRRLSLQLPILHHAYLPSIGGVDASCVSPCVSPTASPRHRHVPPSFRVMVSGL

On to `O=C(O)CCCO` [GHB], for which, at GABAB receptors, the “binding affinity to GABAB receptors” value was “low affinity (millimolar)”. Moreover, the “binding affinity to specific protein in neurons (CaMK2a)” value on CaMK2a [1] is listed as “high affinity (nanomolar to micromolar)”.

As to `O=C(O)C1=CC(O)CC1` (stereo not drawn) [HOCPCA, 3-hydroxycyclopent-1-enecarboxylic acid], the cataplexy entry in experiment [2] (day 8, p=0.044) is given as “decreases cataplexy significantly”; in experiment [2] (day 15, p=0.010), “decreases cataplexy significantly”. Besides, the “wakefulness, medium long wake bouts” value in experiment [2] (p=0.01, two-way ANOVA with post hoc Dunnett) is reported as “significant decrease of medium long wake bouts”.

Consider `O=C(O)/C=C1\CCCc2cc(-c3ccccc3)ccc2C1O` (stereo not drawn) [Ph-HTBA], for which the “treatment effect on sleep/wake parameters and cataplexy episodes” value in experiment [3] was “overall statistical significant effect”.

As to `O=C(O)C1=CC(O)CC1` (stereo not drawn) [^3H-HOCPCA], the “3H-HOCPCA binding levels in brain slices” value on CaMK2a [4] is “Increased Binding”. Besides, in the experiment on rat CaMK2a, the “3H-HOCPCA binding to mutated CaMK2a compared to wild-type” value is “completely abolished binding”.

Consider `NCC(CC(=O)O)c1ccc(Cl)cc1` (stereo not drawn) [baclofen], for which, in experiment [5], the “efficacy on narcolepsy symptoms” value was “has efficacy on narcolepsy symptoms”.

The record behind these values is patent publication US12714683B2, “Treatment of CNS disorders with sleep disturbances” (University of Copenhagen, priority 2019, dated 2026).
